Patent US20260103471A1, “CYCLIC UREA THIAZOLYL COMPOUNDS FOR TREATMENT OF HSV” (Assembly Biosciences, Inc., priority 2022, published 2026)
pEC50: −log10 of the molar value.

Each compound was assayed on HSV-1 (assay: HSV-1 Antiviral Assay (Vero cells, cell viability)). Conditions: Human alphaherpesvirus 1, 96 h; Vero cells, 80 TCID50 HSV-1, 4 days, cell viability; read-out: HSV-1 EC50.
Type: cell-based
Experimental: Vero cells were cultured in Dulbecco's Modified Eagle Medium (DMVEM) supplemented with […] and 100 units/mL penicillin and streptomycin. The cells were passaged 2-3 times per week to maintain sub-confluent densities.
Vero cells were seeded into 96-well plates at a density of 2.5×10^3 cells per well and allowed to attach overnight. Following attachment, the media was replaced with 50 μL of infection medium (DMVEM supplemented with 2% fetal bovine serum and 100 units/mL penicillin and streptomycin). A Tecan D300e digital dispenser was then used to add compounds to the culture using an 8-point 3-fold serial dilution format. The DMSO concentration was normalized to 0.5% for all treatments. Following compound addition, 50 μL of infection medium containing 80 TCID50 HSV-1 was added to the cells and incubated at 37° C. for 4 days. After the incubation, the plates were equilibrated to room temperature, the media was removed, and […] a 1:1 dilution of Cell titer glow and phosphate buffered saline was added to the cells. Following a 5-minute incubation, cell viability was quantified by measuring luminance using a Tecan Infinite M1000 Pro plate reader.

pEC50	SMILES
> 7.00	Cc1nc(N2CCCN(c3ccc(-c4cc(F)cc(F)n4)cc3)C2=O)sc1S(N)(=O)=O [Compound 235, 2-(3-(4-(4,6-difluoropyridin-2-yl)phenyl)-2-oxotetrahydropyrimidin-1(2H)-yl)-4-methylthiazole-5-sulfonamide]
> 7.00	Cc1nc(N2CCCN(c3ccc(-c4cc(F)ccn4)cc3)C2=O)sc1S(N)(=O)=O [Compound 36]
5.30 to 6.00	Cc1nc(N2CCCN(c3ccc(-c4ccc5ncn(C)c5c4)cc3)C2=O)sc1S(N)(=O)=O [Compound 75]
6.00 to 7.00	Cc1nc(N2CCCN(c3ccc(-c4cnccn4)cc3)C2=O)sc1S(N)(=O)=O [Compound 39]
6.00 to 7.00	Cc1nc(N2CC3(CC3)CN(c3ccc(-c4ccccc4F)cc3)C2=O)sc1[S@@](C)(=N)=O (single isomer, unassigned) [Compound 160]
5.30 to 6.00	Cc1cnc(-c2ccc(N3CCCN(c4nc(C)c(S(N)(=O)=O)s4)C3=O)cc2)s1 [Compound 44]
> 7.00	Cc1nc(N2CC3(CC3)CN(c3ccc(-c4ccccc4F)cc3)C2=O)sc1S(N)(=O)=O [Compound 111]
> 7.00	Cc1nc(N2CCCN(c3ccc(-n4ncc5ccccc54)cc3)C2=O)sc1S(N)(=O)=O [Compound 93]
> 7.00	Cc1nc(N2CCCN(c3ccc(-c4cccc5ccncc45)cc3)C2=O)sc1S(N)(=O)=O [Compound 83]
5.30 to 6.00	Cc1nc(N2CCCN(c3ccc(-c4cccc5ncn(C)c45)cc3)C2=O)sc1S(N)(=O)=O [Compound 62]
6.00 to 7.00	Cc1nc(N2CCCN(c3ccc(-c4cc(F)ccc4F)cc3)C2=O)sc1S(=O)(=O)Nc1ccccc1 [Compound 134]
6.00 to 7.00	Cc1nc(N2CCCN(Cc3cccc(-c4ccccc4)c3)C2=O)sc1S(=O)(=O)NC1CC1 [Compound 183]
6.00 to 7.00	Cc1nc(N2CC3(CC3)CN(c3ccc(-c4ccccc4F)cc3)C2=O)sc1[S@](C)(=N)=O (single isomer, unassigned) [Compound 159]
> 7.00	Cc1nc(N2CC(C)(C)CN(c3ccc(-c4cc(F)ccc4F)cc3)C2=O)sc1S(N)(=O)=O [Compound 106]
6.00 to 7.00	CS(=O)(=O)c1cnc(N2CCCN(c3ccc(-c4cc(F)ccc4F)cc3)C2=O)s1 [Compound 167]
6.00 to 7.00	CC[S@@](=N)(=O)c1sc(N2CCCN(c3ccc(-c4cc(F)ccc4F)cc3)C2=O)nc1C (single isomer, unassigned) [Compound 149]
> 7.00	CC[S@](=N)(=O)c1sc(N2CCCN(c3ccc(-c4cc(F)ccc4F)cc3)C2=O)nc1C (single isomer, unassigned) [Compound 150]
6.00 to 7.00	Cc1nc(N2CCCN(c3ccc(-c4ccccc4F)cc3)C2=O)sc1[S+](C)[O-] (stereo not drawn) [Compound 168]
5.30 to 6.00	Cc1nc(N2CCCN(c3ccc(-c4nnco4)cc3)C2=O)sc1S(N)(=O)=O [Compound 51, 2-(3-(4-(1,3,4-oxadiazol-2-yl)phenyl)-2-oxotetrahydropyrimidin-1(2H)-yl)-4-methylthiazole-5-sulfonamide]
5.30 to 6.00	C#Cc1cc(F)c(-c2ccc(N3CCCN(c4nc(C)c(S(N)(=O)=O)s4)C3=O)cc2)cc1F [Compound 29]
5.30 to 6.00	Cc1nc(N2CCCN(c3ccc(-c4cccc5c4CC(=O)N5)cc3)C2=O)sc1S(N)(=O)=O [Compound 76]
6.00 to 7.00	Cc1nc(N2CCCN(c3ccc(-c4cccc(NC(=O)OC(C)(C)C)n4)cc3)C2=O)sc1S(N)(=O)=O [Compound 34]
5.30 to 6.00	Cc1nc(N2CCCN(C(C)c3cccc(-c4ccccc4F)c3)C2=O)sc1S(N)(=O)=O (stereo not drawn) [Compound 177]
6.00 to 7.00	Cc1nc(N2CCCN(c3ccc(-c4cccc5cn(C)nc45)cc3)C2=O)sc1S(N)(=O)=O [Compound 53]
> 7.00	NS(=O)(=O)c1sc(N2CCCN(c3ccc(-c4ccccc4F)cc3)C2=O)nc1C(F)(F)F [Compound 170]

pEC50	SMILES
6.00 to 7.00	Cc1nc(N2CCCN(c3ccc(-c4cc(F)ccc4F)cc3)C2=O)sc1S(=O)(=O)N1CCNCC1 [Compound 135]
5.30 to 6.00	CC(=O)NS(=O)(=O)c1sc(N2CCCN(c3ccc(-c4cc(F)ccc4F)cc3)C2=O)nc1C [Compound 137]
6.00 to 7.00	Cc1nc(N2CCCN(c3ccc(-c4cccc(N)n4)cc3)C2=O)sc1S(N)(=O)=O [Compound 33]
> 7.00	NS(=O)(=O)c1sc(N2CCCN(c3ccc(-c4cc(F)ccc4F)cc3)C2=O)nc1C(F)(F)F [Compound 169, 2-(3-(2′,5′-Difluoro-[1,1′-biphenyl]-4-yl)-2-oxotetrahydropyrimidin-1(2H)-yl)-4-(trifluoromethyl) thiazole-5-sulfonamide]
6.00 to 7.00	Cc1nc(N2CCCN(c3ccc(-c4ccccn4)c(F)c3)C2=O)sc1S(=O)(=O)NC1CC1 [Compound 129]
> 7.00	CCS(=N)(=O)c1sc(N2CCCN(c3ccc(-c4cc(F)ccc4F)cc3)C2=O)nc1C (stereo not drawn) [Compound 148]
6.00 to 7.00	CNS(=O)(=O)c1sc(N2CCCN(c3ccc(-c4cccc(NC(=O)OC(C)(C)C)n4)cc3)C2=O)nc1C [Compound 125]
6.00 to 7.00	Cc1nc(N2CCCN(c3ccc(-c4cc(F)ccc4F)cc3)C2=O)sc1S(=O)(=O)N1CCOCC1 [Compound 136]
5.30 to 6.00	Cc1nc(N2CCCN(c3cnn(-c4ccccc4F)c3)C2=O)sc1S(N)(=O)=O [Compound 100]
6.00 to 7.00	Cc1nc(N2CCCN(c3ccc(-c4cccc(C(F)(F)F)c4)cc3)C2=O)sc1S(N)(=O)=O [Compound 15]
6.00 to 7.00	Cc1nc(N2CCCN(c3ccc(-c4cc(F)ccc4F)cc3)C2=O)sc1S(C)(=N)=O (stereo not drawn) [Compound 139, 1-(2′,5′-Difluoro-[1,1′-biphenyl]-4-yl)-3-(4-methyl-5-(S-methylsulfonimidoyl)thiazol-2-yl) tetrahydropyrimidin-2(1H)-one]
6.00 to 7.00	Cc1nc(N2CCCN(c3ccc(-c4cccc5c4ncn5C)cc3)C2=O)sc1S(N)(=O)=O [Compound 61]
6.00 to 7.00	Cc1nc(N2CCCN(Cc3cccc(-c4cc(F)ccc4F)c3)C2=O)sc1S(=O)(=O)NC1CC1 [Compound 180]
6.00 to 7.00	Cc1nc(N2CC3(CC3)CN(c3ccc(-c4ccccc4F)cc3)C2=O)sc1S(C)(=N)=O (stereo not drawn) [Compound 158]
6.00 to 7.00	Cc1nc(N2CCCN(c3ccc(-c4n[nH]c5ccccc45)cc3)C2=O)sc1S(N)(=O)=O [Compound 91]
5.30 to 6.00	Cc1nc(N2CCCN([C@@H](C)c3cccc(-c4ccccc4F)c3)C2=O)sc1S(N)(=O)=O (single isomer, unassigned) [Compound 179]
5.30 to 6.00	Cc1nc(N2CCCN(c3ccc(-c4nc5ccccc5o4)cc3)C2=O)sc1S(N)(=O)=O [Compound 87]
6.00 to 7.00	Cc1nc(N2CCCN(c3ccc(-c4cccc5cccnc45)cc3)C2=O)sc1S(N)(=O)=O [Compound 82]
5.30 to 6.00	Cc1nc(N2CCN(c3ccc(-c4cc(F)ccc4F)cc3)C2=O)sc1S(N)(=O)=O [Compound 104]
> 7.00	Cc1nc(N2CCCN(c3ccc(-c4cccc5scnc45)cc3)C2=O)sc1S(N)(=O)=O [Compound 71, 2-(3-(4-(Benzo[d]thiazol-4-yl)phenyl)-2-oxotetrahydropyrimidin-1(2H)-yl)-4-methylthiazole-5-sulfonamide]
6.00 to 7.00	Cc1nc(N2CCCN(c3ccc(-c4cc(F)ccc4F)cc3)C2=O)sc1S(=O)(=O)C(C)C [Compound 162, 1-(2′,5′-Difluoro-[1,1′-biphenyl]-4-yl)-3-(5-(isopropylsulfonyl)-4-methylthiazol-2-yl) tetrahydropyrimidin-2(1H)-one]
> 7.00	Cc1nc(N2CCCN(c3ccc(-c4cccc5c4ccn5C)cc3)C2=O)sc1S(N)(=O)=O [Compound 66]
6.00 to 7.00	Cc1nc(N2CCCN(c3ccc(-c4nc(C(F)(F)F)cs4)cc3)C2=O)sc1S(N)(=O)=O [Compound 46]
> 7.00	Cc1nc(N2CCCN(c3ccc(-c4cccc5cnn(C)c45)cc3)C2=O)sc1S(N)(=O)=O [Compound 63]

Same assay, conditions: Human alphaherpesvirus 1, Vero, 96 h, read-out: HSV-1 EC50

SMILES	pEC50
Cc1nc(N2CCCN(c3ccc(-c4cc(F)ccc4F)cc3)C2=O)sc1S(=O)(=O)F [Compound 165]	5.30 to 6.00

The compounds below were run on HSV-2 G strain (assay: HSV-2 Antiviral Assay (Vero cells, cell viability)). Conditions: Human alphaherpesvirus 2, Vero, 120 h, Vero cells, 160 TCID50 HSV-2 G strain, 5 days, cell viability.
Type: cell-based
Method in brief: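 Vero cells (1.0×10^4/well, attached overnight) given 8-point 3-fold compound dilutions (0.5% DMSO) then infected with 160 TCID50 HSV-2 G strain in 2% FBS medium for 5 days at 37 °C. Protection read as cell viability by WST-8 absorbance at 460 and 620 nm after 3 h.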

pEC50	SMILES
> 7.00	Cc1nc(N2CCCN(c3ccc(-c4cc(F)cc(F)n4)cc3)C2=O)sc1S(N)(=O)=O [Compound 235, 2-(3-(4-(4,6-difluoropyridin-2-yl)phenyl)-2-oxotetrahydropyrimidin-1(2H)-yl)-4-methylthiazole-5-sulfonamide]
> 7.00	Cc1nc(N2CCCN(c3ccc(-c4cc(F)ccn4)cc3)C2=O)sc1S(N)(=O)=O [Compound 36]
5.30 to 6.00	Cc1nc(N2CCCN(c3ccc(-c4ccc5ncn(C)c5c4)cc3)C2=O)sc1S(N)(=O)=O [Compound 75]
> 7.00	Cc1nc(N2CCCN(c3ccc(-c4cc(C(F)(F)F)cc5c4cnn5C)cc3)C2=O)sc1S(N)(=O)=O [Compound 287]
> 7.00	Cc1cc(F)cc(-c2ccc(N3CCCN(c4nc(C)c(S(N)(=O)=O)s4)C3=O)cc2)n1 [Compound 237]
6.00 to 7.00	Cc1nc(N2CCCN(c3ccc(-c4ccccc4F)cc3)C2=O)sc1S(C)(=N)=O (stereo not drawn) [Compound 142]
> 7.00	Cc1nc(N2CCCN(c3ccc(-c4nn(C)c5ccccc45)cc3)C2=O)sc1S(N)(=O)=O [Compound 92]
> 7.00	COc1cc(-c2ccc(N3CCCN(c4nc(C)c(S(N)(=O)=O)s4)C3=O)cc2)c2nsnc2c1 [Compound 303]
> 7.00	Cc1nc(N2C[C@@H](C)CN(c3ccc(-c4ccccc4F)cc3)C2=O)sc1S(N)(=O)=O [Compound 317]
> 7.00	Cc1nc(N2CCCN(c3ccc(-c4cc(F)cc5c4c(F)cn5C)cc3)C2=O)sc1S(N)(=O)=O [Compound 295]
